# From paper PMC6661766, “Antimicrobial, antioxidant and cytotoxic evaluation of diazenyl chalcones along with insights to mechanism of interaction by molecular docking studies” (BMC Chemistry, 2019)
# Legend:
# [1] = system: B. subtilis; assay: Antimicrobial serial tube dilution, MIC and MBC; type: cell-based, Bacillus subtilis MTCC 2063; settings: Bacillus subtilis; for MIC: 24 h, read-out: B. subtilis MIC; for MBC: read-out: B. subtilis MBC
# Method: (§1) The synthesized diazenyl chalcones (C18 to C27) and controls (dyes A and E, and chalcone) were assessed for their antimicrobial activity by estimation of MIC and MBC/MFC values. […] The stock solutions of the test compounds and standard drugs having a concentration of 1000 µg ml^−1 were prepared by dissolving the used compounds in DMSO. The nutrient broth/Sabouraud dextrose broth was used for the serial dilution of the test compounds and referenced drugs for bacterial and fungal cultures, respectively. […] The size of the final inoculum in each test tube was taken as 5 × 10^5 CFU ml^−1. The incubation of the test and standard compounds of varying concentrations was done for 24 h at 37 ± 2 °C (bacterial culture) and for 48 h at 37 ± 2 °C (C. albicans) and for 7 d at 25 ± 2 °C (A. fumigatus). The diazenyl chalcones (C18–C27), were further evaluated for their bactericidal/fungicidal activity by estimation of MBC/MFC values. […] For proper mixing of culture media, the plates were shaken gently followed by incubation at the predefined temperature and time as stated earlier, followed by the visual inspection of the plates for signs of microbial growth.
# [2] = system: S. aureus; assay: Antimicrobial serial tube dilution, MIC and MBC; type: cell-based, Staphylococcus aureus MTCC 2901; settings: Staphylococcus aureus; for MIC: 24 h, read-out: S. aureus MIC; for MBC: read-out: S. aureus MBC
# Method: as §1
# [3] = system: HEK human embryonic kidney cells; assay: MTT cytotoxicity assay, HEK; type: cell-based; settings: 48 h
# Method: (§2) The cell lines employed in the investigation were purchased from the National Centre for Cell Sciences (NCCS), Pune, India. The cell lines were cultured in DMEM fortified with 10% FBS, L-glutamine, sodium bicarbonate, and solution of antibiotics (streptomycin 100 μg ml^−1 + penicillin-100 U ml^−1). The culture of cell lines was stored under 5% CO2 incubation at 37 °C.
# (§3) The compounds showing maximum activity (antimicrobial and antioxidant potential) were screened for cytotoxicity against A549 and HEK cell lines using MTT assay. Initially, 96-well microculture plate was seeded with 1 × 10^4 cells in 100 µl/well DMEM/MEM, supplemented with 10% FBS followed by incubation at a temperature of 37 °C for a period of 24 h under 5% CO2 atmosphere. After that, the test compounds and camptothecin were added to the cells to achieve a concentration of 10, 25, 50 and 100 µg. MTT reagent (10 µl) of concentration of 5 mg ml^−1 added to all the wells after the duration of 48 h. The plate was incubated further for 4 h followed by careful removal of supernatant from each well. To dissolve the formazan crystals, 100 µl of DMSO was added, and the ELISA reader was used to check the absorbance at 570 nm wavelength. In order to calculate the IC50 concentration, the following equation, i.e. A = Bx + C, was used. In this case, A = 50, while the values B and C values were obtained from the survival curve plot. This study was carried out in duplicate.
# [4] = system: E. coli; assay: Antimicrobial serial tube dilution, MIC and MBC; type: cell-based, Escherichia coli MTCC 1652; settings: for MIC / MBC: Escherichia coli; for MIC: 24 h, read-out: E. coli MIC, 24 h at 37 ± 2 °C; for MBC: read-out: E. coli MBC
# Method: as §1
# [5] = system: C. albicans; assay: Antimicrobial serial tube dilution, MIC and MFC; type: cell-based, Candida albicans MTCC 227; settings: Candida albicans; for MIC: 48 h, read-out: C. albicans MIC; for MFC: read-out: C. albicans MFC
# Method: as §1
# [6] = system: S. typhi; assay: Antimicrobial serial tube dilution, MIC and MBC; type: cell-based, Salmonella typhi MTCC 3216; settings: Salmonella enterica, TYPHI; for MIC: 24 h, read-out: S. typhi MIC; for MBC: read-out: S. typhi MBC
# Method: as §1
# [7] = system: A. fumigatus; assay: Antimicrobial serial tube dilution, MIC and MFC; type: cell-based, Aspergillus fumigatus MTCC 2584; settings: Aspergillus fumigatus; for MIC: 168 h, read-out: A. fumigatus MIC; for MFC: read-out: A. fumigatus MFC
# Method: as §1
# [8] = system: B. cereus; assay: Antimicrobial serial tube dilution, MIC and MBC; type: cell-based, Bacillus cereus MTCC 1305; settings: Bacillus cereus; for MIC: 24 h, read-out: B. cereus MIC; for MBC: read-out: B. cereus MBC
# Method: as §1
# [9] = system: A549 human lung cancer cell line; assay: MTT cytotoxicity assay, A549; type: cell-based
# Method: as §2, §3
# [10] = DPPH scavenging antioxidant assay
# Method: The derivatives (C18–C27) were assessed for their antioxidant potential in the presence of the stable free radical DPPH using ascorbic acid as the standard compound [36, 37]. […] The total volume of 200 µl was used in each well for each concentration of the test and standard drug containing 0.004 µg DPPH. The assay was performed in triplicate at all concentrations of each sample and standard compound. DPPH solutions in methanol at the same concentration without test drugs were used as the control. Each concentration of the sample and standard has a different blank. To minimize evaporation, the plate was covered with the lid and wrapped in aluminium foil and kept in the dark place in order to protect the DPPH radical from degradation by light and left for 30 min. After 30 min of incubation, the plate was kept in ELISA reader to measure the absorbance values at 517 nm. The experiment was performed in triplicate. The antioxidant activity of each sample was then calculated as per cent inhibition of DPPH according to the following equation: %decolourationofDPPH=ControlAbs-SampleAbs×100/ControlAbs
smiles,measurement,setting,value
"O=Cc1ccc(/C=C\C(=O)c2cccc(N=Nc3cccc(Cl)c3Cl)c2O)cc1 [Compound C-25, 4-((1Z)-3-(3-((2,3-Dichlorophenyl)diazenyl)-2-hydroxyphenyl)-3-oxoprop-1-en-1-yl)benzaldehyde]",MIC,[1],15.6 µg/mL
same,MBC,[1],62.5 µg/mL
same,MIC,[2],62.5 µg/mL
same,MBC,[2],62.5 µg/mL
same,IC50,[3],270 ± 2.82 µg/mL
same,MIC,[4],62.5 µg/mL
same,MBC,[4],125 µg/mL
same,MIC,[5],31.2 µg/mL
same,MFC,[5],62.5 µg/mL
same,melting point,,96 to 98 °C
same,MIC,[6],125 µg/mL
same,MBC,[6],125 µg/mL
same,MIC,[7],62.5 µg/mL
same,MFC,[7],62.5 µg/mL
same,MIC,[8],125 µg/mL
same,MBC,[8],125 µg/mL
same,Morphological changes in A549 cell line,"[9]; C-25 at 50 and 25 µg ml^−1, Fig. 2",reduced the number and clumping of A549 cells to a significant extent
same,IC50,"[9]; Homo sapiens, A549, MTT, 48 h",18 ± 1.34 µg/mL
same,Cytotoxicity against A549 cell line in words,[9]; compared with camptothecin,comparable cytotoxicity to camptothecin
same,IC50 DPPH,[10],> 100 µg/mL
same,% inhibition of DPPH,[10]; 1.56 µg ml^−1,9.71%
same,% inhibition of DPPH,[10]; 3.12 µg ml^−1,10.38%
same,% inhibition of DPPH,[10]; 6.25 µg ml^−1,11.36%
same,% inhibition of DPPH,[10]; 12.5 µg ml^−1,13.56%
same,% inhibition of DPPH,[10]; 25 µg ml^−1,14.91%
same,% inhibition of DPPH,[10]; 50 µg ml^−1,15.67%
same,% inhibition of DPPH,[10]; 100 µg ml^−1,20.34%
"O=C(/C=C/c1ccc(Cl)cc1Cl)c1ccc(O)c(N=Nc2cccc(Cl)c2Cl)c1 [Compound C-18, (2E)-3-(2,4-Dichlorophenyl)-1-(3-((2,3-dichlorophenyl)diazenyl)-4-hydroxyphenyl)prop-2-en-1-one]",MIC,[1],125 µg/mL
same,MBC,[1],125 µg/mL
same,MIC,[2],31.2 µg/mL
same,MBC,[2],125 µg/mL
same,E. coli MIC,[4]; 24 h at 37 ± 2 °C,15.62 µg/mL
same,MIC,[4],7.81 to 15.6 µg/mL
same,MBC,[4],62.5 µg/mL
same,MIC,[5],125 µg/mL
same,MFC,[5],125 µg/mL
same,melting point,,110 to 112 °C
same,MIC,[6],31.2 µg/mL
same,MBC,[6],125 µg/mL
same,MIC,[7],125 µg/mL
same,MFC,[7],125 µg/mL
same,MIC,[8],31.2 µg/mL
same,MBC,[8],125 µg/mL
same,IC50 DPPH,[10],> 100 µg/mL
same,% inhibition of DPPH,[10]; 1.56 µg ml^−1,7.21%
same,% inhibition of DPPH,[10]; 3.12 µg ml^−1,8.76%
same,% inhibition of DPPH,[10]; 6.25 µg ml^−1,9.37%
same,% inhibition of DPPH,[10]; 12.5 µg ml^−1,12.35%
same,% inhibition of DPPH,[10]; 25 µg ml^−1,15.68%
same,% inhibition of DPPH,[10]; 50 µg ml^−1,21.79%
same,% inhibition of DPPH,[10]; 100 µg ml^−1,31.98%
"CC(=O)c1ccc(O)c(N=Nc2cccc(Cl)c2Cl)c1 [Dye A, 1-(3-((2,3-Dichlorophenyl)diazenyl)-4-hydroxyphenyl)ethanone]",MIC,[1],125 µg/mL
same,MBC,[1],125 µg/mL
same,MIC,[2],125 µg/mL
same,MBC,[2],125 µg/mL
same,MIC,[4],15.6 µg/mL
same,MBC,[4],31.2 µg/mL
same,MIC,[5],62.5 µg/mL
same,MFC,[5],62.5 µg/mL
same,melting point,,140 to 142 °C
same,MIC,[6],62.5 µg/mL
same,MBC,[6],62.5 µg/mL
same,MIC,[7],125 µg/mL
same,MFC,[7],125 µg/mL
same,MIC,[8],31.2 µg/mL
same,MBC,[8],31.2 µg/mL
same,IC50 DPPH,[10],> 100 µg/mL
same,% inhibition of DPPH,[10]; 1.56 µg ml^−1,4.65%
same,% inhibition of DPPH,[10]; 3.12 µg ml^−1,9.23%
same,% inhibition of DPPH,[10]; 6.25 µg ml^−1,11.97%
same,% inhibition of DPPH,[10]; 12.5 µg ml^−1,17.67%
same,% inhibition of DPPH,[10]; 25 µg ml^−1,22.18%
same,% inhibition of DPPH,[10]; 50 µg ml^−1,29.87%
same,% inhibition of DPPH,[10]; 100 µg ml^−1,35.45%
